The results in this text go back to patent US20250275958A1, “GPCR REGULATOR AND USE THEREOF” (BEIJING CHANGPING LABORATORY, priority 2022, published 2025).

One assay has as its target T1, GPR132 (Homo sapiens, UniProt Q9UNW8).
T1 construct: expressed in transfected cells; host or cells: HEK293 cells (transient co-transfection)
T1 sequence (Q9UNW8 1-380): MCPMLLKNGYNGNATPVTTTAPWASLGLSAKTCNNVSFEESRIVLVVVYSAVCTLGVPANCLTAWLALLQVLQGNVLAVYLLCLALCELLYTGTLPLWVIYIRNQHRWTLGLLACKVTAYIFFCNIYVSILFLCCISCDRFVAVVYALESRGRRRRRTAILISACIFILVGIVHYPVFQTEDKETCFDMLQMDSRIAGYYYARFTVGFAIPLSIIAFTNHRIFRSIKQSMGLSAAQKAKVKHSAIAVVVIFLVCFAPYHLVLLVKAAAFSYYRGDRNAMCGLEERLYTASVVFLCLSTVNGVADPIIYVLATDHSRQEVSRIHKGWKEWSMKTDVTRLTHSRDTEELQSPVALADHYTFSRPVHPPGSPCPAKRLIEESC
Description: G protein activation (Gi BRET probes, GPR132 co-transfected in HEK293 cells). It is filed as cell-based. Conditions: stimulated 2 minutes, read-out: GPR132 EC50 (GPR132 agonist activity). How it is done:
Gi BRET probes were generated according to previous literature (Olsen et al., 2020), and included Gαi-RLuc8, Gβ3, and Gγ9-GFP2. GPR132 and Gi BRET probes were transiently co-transfected in HEK293 cells. 24 hours after transfection, the cells were distributed into 96-well microplates at a density of 5×10^4 cells per well and cultured for another 24 hours. The cells were washed twice with Tyrode buffer and stimulated with compound ligands at different concentrations (10^−12 to 10^−5 M) for 2 minutes. After adding coelenterazine, the substrate of luciferase, 400a (5 μM), BRET signal was measured using a Mithras LB940 microplate reader equipped with a BRET filter set. The BRET signal was calculated as the emission light ratio at 510 nm/400 nm.
The compounds with lower EC50 values in the above experiments had good GPR132 agonist activity.
In general terms: BRET reads energy transfer from a luciferase to a nearby fluorophore.

For the next assay, the system named is TNF-α. Kind of assay: Determination of level of tumor necrosis factor (TNF-α) as cell inflammatory marker, ELISA, LPS-treated HepG2 cells. Type of assay: cell-based. Conditions: Homo sapiens, 48 h of drug administration, read-out: EC50 (activity in reducing TNF-α). How it is done: HepG2 cells were inoculated in 96-well plates at a density of 30%. After incubation for 18 h to allow the cells to adhere to wall, the original culture medium was removed, and each well of the drug group was added with LPS culture medium (LPS concentration was […]), the control group was added with an equal amount of DMSO, and incubation was performed overnight. […] Three replicate wells were set for each compound. After 48 h of drug administration, the cell supernatant was collected with a sterile tube, and centrifuged for about 20 minutes (2000 to 3000 rpm). The supernatant was carefully collected. The TNF-α level was then determined using ELISA method. The specific steps were as follows: • Standard sample addition: Standard sample wells and sample wells were set, and 50 μL of standard sample at different concentrations was added to each standard sample well. • Sample addition: Blank wells (blank control wells was not added with sample and ELISA reagent, and the rest operations were the same) and test sample wells were set. First, 40 μL of sample diluent was added to each test sample well on an ELISA plate, and then 10 μL of the sample to be tested (the final dilution ratio of sample was 5) was added. The sample was added to the bottom of the well of the ELISA plate, not touching the well wall as much as possible, and then the gentle shaking was carried out for mixing. • Enzyme addition: 100 μL of ELISA reagent was added to each well, except for the blank wells. • Incubation: The plate was sealed with a sealing film and incubated at 37° C. for 60 minutes. • Solution preparation: 20-Fold concentrated washing solution was diluted by 20-fold with distilled water for later use. • Washing: The sealing film was carefully peeled off, the liquid was discarded, the plate was spin-dried; each well was filled with the washing solution, allowed to stand for 30 seconds and then the washing solution was discarded. This operation was repeated 5 times, and pat-drying was performed. • Color development: First, 50 μL of color developer A was added to each well, then 50 μL of color developer B was added, gently shaken and mixed, and color development was performed at 37° C. in the dark for 15 minutes. • Termination: 50 μL of termination liquid was added to each well to stop the reaction (the blue color immediately turned yellow). • Determination: Zero was set with the blank well, and the absorbance (OD value) at 450 nm of each well was measured in sequence. The determination should be performed within 15 minutes after adding the termination liquid.
TNF-α content in the sample to be tested could be calculated by drawing a standard curve based on the standard samples. TNF-α reduction rate was further calculated. The formula for calculating TNF-α reduction was Reduction rate (%)=TNF-α contentcontrol−TNF-α contentto be tested/TNF-α contentcontrol×100.
In the above experiment, the compounds with higher TNF-α reduction rate and lower EC50 value could better reduce the level of inflammation.
Background: In an ELISA, binding on a coated surface is turned into a signal by an enzyme label.

Like-named read-outs stand apart in the source and are kept apart here.

Turning to `Cc1c(C(=O)O)oc2ccc(NC(=O)CCc3ccccc3)cc12` [Example 16], the EC50 (as a rule, the concentration giving half of the maximal effect) is 6500 nM on GPR132 and 10200 nM in the assay with TNF-α.

Take `Cc1c(C(=O)O)oc2ccc(NC(=O)/C=C/c3ccccc3)cc12` [Example 17]: the 50% effective concentration (EC50) on GPR132 (class symbols) lay in the range of 10 to 1000 nM; with TNF-α (class symbols), 10 to 10000 nM.

On to `Cc1c(C(=O)O)oc2ccc(NC(=O)/C=C/c3cccc(I)c3)cc12` [Example 18, (E)-5-(3-(3-IODOPHENYL)ACRYLAMIDO)-3-METHYLBENZOFURAN-2-CARBOXYLIC ACID], for which the EC50 was 510 nM on GPR132 and 1000 nM in the assay with TNF-α.

For the compound `Cc1c(C(=O)O)oc2ccc(NC(=O)[C@H]3C[C@H]3c3ccccc3)cc12` [Example 19, 3-METHYL-5-((1S,2R)-2-PHENYLCYCLOPROPANE-1-CARBOXAMIDO) BENZOFURAN-2-CARBOXYLIC ACID], the EC50 lay within 1000 to 10000 nM on GPR132 (class symbols) and 10000 to 50000 nM in the assay on TNF-α (class symbols).

`Cc1c(C(=O)O)oc2ccc(NC(=O)CCC(=O)c3ccccc3)cc12` [Example 20]: the figures for the EC50 at GPR132 (class symbols) and in the assay with TNF-α (class symbols) were 10 to 1000 nM and 10 to 10000 nM, respectively.

In the case of `Cc1c(C(=O)O)oc2ccc(NC(=O)CCCCc3ccccc3)cc12` [Example 21, 3-METHYL-5-(5-PHENYLVALERAMIDO)BENZOFURAN-2-CARBOXYLIC ACID], the concentration giving a half-maximal response (EC50) fell in the range of 1000 to 10000 nM on GPR132 (class symbols) and 10 to 10000 nM in the assay with TNF-α (class symbols).

As for `Cc1c(C(=O)O)oc2ccc(OCCCc3ccccc3)cc12` [Example 22, 3-METHYL-5-(3-PHENYLPROPOXY)BENZOFURAN-2-CARBOXYLIC ACID], the EC50 at GPR132 (class symbols) is 10 to 1000 nM; in the assay with TNF-α (class symbols), 10 to 10000 nM.

Regarding `Cc1c(C(=O)O)oc2ccc(S(=O)(=O)N(CCc3ccccc3)Cc3ccccc3)cc12` [Example 23, 3-METHYL-5-(N-BENZYL-N-PHENYLETHYLSULFAMOYL)BENZOFURAN-2-CARBOXYLIC ACID], the EC50 at GPR132 was determined as 3800 nM; in the assay on TNF-α it was 5900 nM.

Consider `Cc1c(C(=O)O)oc2ccc(S(=O)(=O)N(CCc3ccccc3)Cc3ccc(Br)cc3)cc12` [Example 24, 3-METHYL-5-(N-(4-BROMOBENZYL)-N-PHENYLETHYLSULFAMOYL)BENZOFURAN-2-CARBOXYLIC ACID], for which the EC50 was 300 nM at GPR132 and 700 nM in the assay with TNF-α.

On to `Cc1c(C(=O)O)oc2ccc(S(=O)(=O)N(CCc3ccccc3)Cc3ccc(C(=O)OC(C)(C)C)cc3)cc12` [Example 25, 3-METHYL-5-(N-(4-(TERT-BUTYLOXYCARBONYL)BENZYL)-N-PHENYLETHYLSULFAMOYL) BENZOFURAN-2-CARBOXYLIC ACID], for which the EC50 on GPR132 (class symbols) is 10 to 1000 nM; in the assay with TNF-α (class symbols), 10 to 10000 nM.

Regarding `Cc1c(C(=O)O)oc2ccc(S(=O)(=O)N(CCc3ccccc3)Cc3cccc4cccnc34)cc12` [Example 26, 3-METHYL-5-(N-(QUINOLIN-8-YLMETHYL)-N-PHENYLETHYLSULFAMOYL)BENZOFURAN-2-CARBOXYLIC ACID], the values for the concentration for a half-maximal effect (EC50) on GPR132 (class symbols) and in the assay on TNF-α (class symbols) were 1000 to 10000 nM and 10000 to 50000 nM, respectively.

Consider `Cc1c(C(=O)O)oc2ccc(S(=O)(=O)N(CCc3ccccc3)c3ccccc3)cc12` [Example 27, 3-METHYL-5-(N-PHENETHYL-N-PHENYLSULFAMOYL)BENZOFURAN-2-CARBOXYLIC ACID], for which the EC50 on GPR132 (class symbols) was 1000 to 10000 nM; in the assay with TNF-α (class symbols), 10000 to 50000 nM.

As to `Cc1c(C(=O)O)oc2ccc(S(=O)(=O)N(CCc3ccccc3)CCc3ccccc3)cc12` [Example 28, 3-Methyl-5-(N,N-diphenylethylsulfamoyl)benzofuran-2-carboxylic acid], the EC50 on GPR132 is 2100 nM; in the assay with TNF-α, 3100 nM.

For `Cc1c(C(=O)O)oc2ccc(S(=O)(=O)N(CCc3ccccc3)c3ccc(N4CCN(S(C)(=O)=O)CC4)cc3)cc12` [Example 29, 3-METHYL-5-(N-(4-(4-(METHYLSULFONYL)PIPERAZIN-1-YL)PHENYL)-N-PHENYLETHYLSULFAMOYL)BENZOFURAN-2-CARBOXYLIC ACID], the EC50 at GPR132 (class symbols) fell in the range of 1000 to 10000 nM; with TNF-α (class symbols) it was 10000 to 50000 nM.

On to `Cc1c(C(=O)O)oc2ccc(S(=O)(=O)N(CCc3ccccc3)c3ccc(Oc4ccccc4)cc3)cc12` [Example 30, 3-METHYL-5-(N-(4-PHENOXYPHENYL)-N-PHENYLETHYLSULFAMOYL)BENZOFURAN-2-CARBOXYLIC ACID], for which the figures for the EC50 on GPR132 (class symbols) and in the assay on TNF-α (class symbols) were 10 to 1000 nM and 10000 to 50000 nM, respectively.
